Reference: US20090163436A1, “METHODS FOR DELIVERY OF NUCLEIC ACIDS” (Nucleonics, Inc., priority 2002, published 2009)
Like-named read-outs stand apart in the source and are kept apart here.

Legend:
[1] = Example 3: tissue distribution of labeled DNA after IV administration; details: for total amount of CPMs in all of the organs combined, rank order: 5 days following IV, lung, heart, kidney, spleen, liver
Experimental: (§1) DNA is complexed with spermines as described in the previous two examples at the optimal charge ratio of 0.8 with either the monolactosyl, trilactosyl, or mannosyl (mono and bis) spermine to achieve a final DNA concentration of 1.0 mg/mL in citrate buffer at 5 mM and 150 mM NaCl.
(§2) The mice, 5 per group, are injected intravenously through the tail vein (100 uL). Mice are sacrificed at various times as indicated for serum analysis of plasmid DNA to determine blood clearance. To determine the amount of plasmid in blood, one mL of serum is placed in liquid scintillation counters with fluor to quantify the CPMs associated with each sample. In order to determine tissue distribution, various organs are harvested on day 5 (peak of expression from previous studies) and snap frozen. Whole organs from the animals are harvested livers from 3 animals in the group of 5 are ground in mild alkali (100 mM KOH) and neutralized with acid (HCl) prior to scintillation counting. Livers from the remaining two animals are embedded in paraffin and sectioned as described in Example 2 and stained for betagalactosidase activity, as described.
(§3) In the second part of the study, distribution of DNA amongst some of the major organs is evaluated 5 days following IV administration. A simple tissue grind and scintillation counting is carried out. The organs chosen (lung, heart, kidney, spleen, and liver) for analysis represent the major capillary beds.

[2] = tested on: cells derived from the spleen; details: IV administration, separate study
Experimental: The complexes are prepared as described above except that 5 mM citrate and 150 mM NaCl are used as buffer. To determine the transfection efficiency, the spleen is removed from mice on day 5. Cells are recovered by crushing the spleen on a slide and observing EGFP fluorescence by fluorescent microscopy. The cell type is identified by cross-staining staining the preparation with labeled MAC1 antibody (macrophage identification) or labeled mannosylated BSA (identification of mannose receptor containing cells) (Current Protocols in Immunology).
In the study evaluating the distribution and blood clearance of DNA following an IV administration, labeled DNA is separately complexed with modified spermines (only monocomplexes of any one spermine is used in this study). Mannose (mono and bis) and lactose (mono and tri) spermines are used separately in these complexes. Unmodified spermine and spermidine complexes with DNA serve as controls.

[3] = Example 3: blood clearance of 14C-labeled plasmid DNA after IV administration
Experimental: Bacteria containing the beta-galactosidase expression plasmid are grown in minimal M9 media (Miller, CSHS laboratory Press) in glucose as the sole carbon source overnight. The cells are washed in minimal media thrice through centrifugation and resuspension in M9 media without the carbon source, and resuspended in M9 with uniformally 14C-labeled ribose (NEN, MA) and deoxynucleosides (NEN, MA) for 3 hours. The cells are harvested, and the plasmid is isolated using Qiagen miniprep columns (Qiagen, Inc., CA). The labeled plasmid is mixed with unlabeled plasmid to achieve a specific activity of 3 million CPM per 100 ug plasmid.
as §1
The mice, 5 per group, are injected intravenously through the tail vein (100 uL). Mice are sacrificed at various times as indicated for serum analysis of plasmid DNA to determine blood clearance. To determine the amount of plasmid in blood, one mL of serum is placed in liquid scintillation counters with fluor to quantify the CPMs associated with each sample. […]

[4] = Example 4: oral delivery of luciferase plasmid microemulsions
Experimental: The objective is to develop microemulsion (ME) formulations designed for oral delivery of DNA. Microemulsions for oral delivery are prepared using a mixture that contains DNA or other nucleic acids (2.0 mg/mL in, e.g., 30 mM citrate, 150 mM NaCl pH 6.8 buffer) and benzalkonium chloride (0.1%). The mixture is further mixed in equal volumes to a mixture that contains seven parts of Labrasol™ (Gattefosse, Saint-Priest Cedex, France), one part of Lauroglycol (polypropylene esters such as Lauroglycol FCC for oral administration from Gattefosse, France) and two parts of ethanol. Other formulations contain bupivacaine at 0.25%, octyl spermine at 2.0 mg/mL, or cholesteryl spermine at 2.0 mg/mL, instead of benzalkonium chloride and lauroglycol in the above formulation. […] The DNA tested is an expression plasmid for luciferase (Promega Corp.). […] The formulation (100 uL) containing DNA is fed to mice (5 in one formulation group) by intubating the stomach. Five days following administration, several organs including kidney, liver, lung, intestinal segments (ileum, duodenum, small intestine and large intestine), brain, heart, and spleen are harvested and snap frozen. The tissues are homogenized in luciferase buffer (Promega Corp., Madison, Wis.) using a polytron. Luciferase activity is determined using a luminometer (Berthold) and in the assay buffer (Promega Corp., Madison, Wis.).

[5] = Example 4: phase location of DNA in cationic amphiphile emulsions; type: physicochemical; details: formulation containing the named cationic amphiphile
[6] = In vivo transfection with local anesthetic complexed DNA versus naked DNA; details: IL12 DNA complexed with 0.25% bupivacaine
Source text: As compared to cationic lipids, simple structures derived from water-soluble amphiphiles have a higher probability of forming transfecting structures that are uniform and homogenous, which is expected to result in increased efficiency, predictability, and potency. We selected cationic amphiphiles that are membrane active, such as the local anesthetics, e.g., bupivacaine (see U.S. Pat. No. 6,383,512, “Vesicular complexes and methods of making and using the same,” which describes compositions comprising lamellar vesicles that comprise a local anesthetic, e.g., bupivacaine, and a nucleic acid molecule). In particular, this reference describes compositions and methods for delivery of nucleic acid molecules that are antisense, ribozyme, or triplex forming nucleic acid molecules, as well as nucleic acid molecules that encode proteins (e.g., non-immunogenic therapeutically effective proteins, and immunogenic proteins designed to elicit a desired immune response in a host). Experiments were carried out to determine whether such vesicular complexes could be used to deliver dsRNA expression constructs capable of eliciting RNAi. […] Additionally, these are currently used in humans, and their toxicity/dose profiles are well characterized. In contrast, the associated toxicity of lipids that transfect efficiently in vitro may preclude their use in vivo. […]

[7] = mouse, in vivo, iv
Experimental: as §1, §2, §3

[8] = tested on: peritoneal cells (macrophages, dendritic cells)
Experimental: Peritoneal fluid was isolated from mice. Plasmid DNA designed to express the green fluorescent protein (GFP) in mammalian cells was complexed with a mixture of the two spermines, mannosyl-mannosyl-spermine and cholesteryl spermine, at different ratios. The complexes were applied to peritoneal cells in culture. The fluorescence intensity of the cells were recorded. The complexes that were prepared for the ex vivo study were injected into the peritoneal cavity of mice. Four and five days following the injection, the cells were collected from the peritoneal cavity and spun down on slides and their ability to fluoresce was determined. The fluorescence intensities were recorded visually.
Labeled antibodies to defined cell surface markers were used to identify the cell type.

[9] = tested on: liver cells (hepatocytes, Kupfer cells); details: IV; for liver cell type transfected: betagal staining of liver slices
Experimental: The mixture is injected intravenously (100 uL) of 5 mice for each formulation variant. Formulations variants included different charge ratios and various lactosyl spermine to cholesteryl spermine ratios. At 5 days postinjection, when in vivo plasmid expression peaks, the mice are sacrificed, and their livers are removed and snap frozen for histological analysis. Several slices of the liver tissue both near and farther from the major blood vessels and the bile ducts are embedded into paraffin and sectioned using a microtome. The tissue slices are stained using X-gal (an enzymatic substrate for betagalactosidase). The liver tissue slices are stained using labeled lactosylated BSA, as a cross stain to identify hepatocytes (asialoglycoprotein receptor). The slides are viewed under an UV fluoroscent microscope to detect the label fluorescence, and the betgal stain is observed under light microscopy. Control mice are administered “naked” DNA free of added complexing agents and DNA complexed with either lactosyl spermine or cholesteryl spermine, but not both.

IL-12 p40 = test: Example 5: serum IL-12 p40 ELISA after intramuscular IL-12 plasmid in Balb/C mice; details: mouse, in vivo
Experimental: Expression of the murine IL-12 transgenes was achieved through the use of vectors containing the HCMV IE promoter and SV40 polyadenation signal. ELISA of serum IL-12 p40 levels affords a facile system to analyze expression levels and the effectiveness of the administered DNA. p40 is one of the two polypeptide chains comprising IL-12.
In all of the RNAi studies described here using IL12 DNA (IL12, dsRNA producing vector and vector encoding T7 RNA polymerase), IL12 DNA was administered as a complex with bupivacaine, a local anesthetic, since higher in vivo transfection efficiencies (˜3×) are achieved with this complex over those mediated by naked DNA. […]
In another set of experiments, murine IL-12 p40 expression in sera was monitored in mice following intramuscular injection of a 100 ug dose of murine IL-12 expression plasmids or in naïve mouse controls that were not injected. […]
Murine IL-12 p40 serum expression was monitored following intramuscular injection of 100 ug IL-12 expression plasmids in mice injected at days 0 and 150 or in mice injected only at day 150. […]

For `CC(=O)O.CC(=O)O.CC(=O)O.CC(=O)O.NCCCN(CCCCCNC(=O)CCS[C@H]1O[C@H](CO)[C@@H](O)[C@H](O)[C@@H]1O)CCCCN(CCCN)CCCCCNC(=O)CCS[C@H]1O[C@H](CO)[C@@H](O)[C@H](O)[C@@H]1O` [bismannosyl spermine, N^4,N^8-bis (5-N-(α-3′-propionamido thiomannoside)pentyl)-spermine tetraacetate], the “total amount of CPMs in all of the organs combined, rank order” value [1] was “trilactosyl>monolactosyl≅bismannosyl≅monomannosyl>>>controls”, the “cells taking up the complexes” value [2] was “taken up exclusively by cells of the macrophage and dendritic cell lineages” and the “blood clearance slower than trilactosyl spermine complexes” value ([3]; DNA monocomplex) was 50-100 times. The “blood clearance of DNA” value ([3]; DNA monocomplex with the named spermine, charge ratio 0.8) was “rapid clearance”.

For `CCCCN1CCCCC1C(=O)Nc1c(C)cccc1C` (centres unmarked) [bupivacaine, reference compound], the “systemic absorption of DNA” value ([4]; mouse, in vivo, po) was “Maximal systemic absorption”, the “phase of the oil in water emulsion that holds the DNA” value (shortened to “phase of the oil”) [5] was “in the oil phase” and the “in vivo transfection efficiency over naked DNA” value [6] was about 3 ×.

With octyl spermine the “systemic absorption of DNA” value ([4]; mouse, in vivo, po) was “Maximal systemic absorption” and the “phase of the oil” value [5] was “in the oil phase”.

In the case of mannosyl spermine, the “retention of DNA” value [7] is reported as 85%, the “expression from the internalized plasmid” value ([8]; GFP plasmid) is reported as “observed only when cholesteryl spermine was included” and the “internalization of labeled DNA particles” value ([8]; all of the tested ratios) is reported as “internalized”. For the same molecule, the “liver cell type transfected” value [9] was “transfect Kupfer cells”.

In the case of lactosyl spermine, the “retention of DNA” value ([1]; IV, DNA monocomplex with modified spermine) is reported as 30%, the “liver cell type transfected” value [9] is reported as “primarily transfect hepatocytes” and the “DNA internalization, cell type” value ([9]; liver sections, day 5) is reported as “exclusively into hepatocytes”. The betagalactosidase expression ([9]; liver sections, no cholesteryl spermine in complex) was “poor”.

With `CC(C)CCC[C@@H](C)[C@H]1CC[C@H]2[C@@H]3CC=C4C[C@@H](OC(=O)NCCCCCN(CCCN)CCCCNCCCN)CC[C@]4(C)[C@H]3CC[C@]12C.Cl` [cholesteryl spermine, N^4-(5-N-(3β-O-carbamoyl-5-cholestene)-1-pentyl)-spermine Hydrochloride] the “systemic absorption of DNA” value ([4]; oral microemulsion containing the named cationic amphiphile) was “Maximal systemic absorption” and the “phase of the oil” value [5] was “in the oil phase”.

With “N^4-(5-(trilactosyllysyllysyl) amidopentyl spermine triacetate [trilactosyl spermine]” the “total amount of CPMs in all of the organs combined, rank order” value [1] was “trilactosyl>monolactosyl≅bismannosyl≅monomannosyl>>>controls”.

In the case of benzalkonium chloride, the “systemic absorption of DNA” value ([4]; mouse, in vivo, po) is reported as “Maximal systemic absorption” and the “phase of the oil” value [5] is reported as “in the oil phase”.

B1: recombinant murine IL-12: recombinant murine IL-12 protein, 50 ug at day 0 (protein, UniProt P43431 23-215; P43432 23-335, looked up)
Interleukin-12 subunit alpha: RVIPVSGPARCLSQSRNLLKTTDDMVKTAREKLKHYSCTAEDIDHEDITRDQTSTLKTCLPLELHKNESCLATRETSSTTRGSCLPPQKTSLMMTLCLGSIYEDLKMYQTEFQAINAALQNHNHQQIILDKGMLVAIDELMQSLNHNGETLRQKPPVGEADPYRVKMKLCILLHAFSTRVVTINRVMGYLSSA
Interleukin-12 subunit beta: MWELEKDVYVVEVDWTPDAPGETVNLTCDTPEEDDITWTSDQRHGVIGSGKTLTITVKEFLDAGQYTCHKGGETLSHSHLLLHKKENGIWSTEILKNFKNKTFLKCEAPNYSGRFTCSWLVQRNMDLKFNIKSSSSSPDSRAVTCGMASLSAEKVTLDQRDYEKYSVSCQEDVTCPTAEETLPIELALEARQQNKYENYSTSFFIRDIIKPDPPKNLQMKPLKNSQVEVSWEYPDSWSTPHSYFSLKFFVRIQRKKEKMKETEEGCNQKGAFLVEKTSTEVQCKGGNVCVQAQDRYYNSSCSKWACVPCRVRS
In the case of B1, the “effect of pre-treatment on IL-12 expression” value (IL-12 p40) is reported as “does not prevent subsequent expression”.
